From US8722849B2, “Polypeptides” (Novo Nordisk A/S, priority 2011, dated 2014)
Converted amounts (≈) assume the structure as drawn. Like-named read-outs stand apart in the source and are kept apart here. Starred links: 1 amine or outer side, 2 acyl side, 3 side chain; linkers in the order of their positions; H or OH if unused. Positions of bridges follow the written chain, without caps; N, C: chain ends. Residues, ends and D or L forms follow the SMILES beside them. *: point of attachment. C20 diacid = O=C(O)CCCCCCCCCCCCCCCCCCC(=O)*; C18 diacid = O=C(O)CCCCCCCCCCCCCCCCC(=O)*; γGlu = O=C(O)[C@H](CCC(=O)[*:2])N[*:1]

Tests used:
[1] = Assay (IV) determination of solubility; format: physicochemical
Procedure, shortened: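 Eight 100 mM buffers (glycylglycine pH 3.0–5.0, bistrispropane pH 6.0–8.0) each received an equal volume of polypeptide dissolved in water at ~500 nmol/ml. Soluble polypeptide was measured by HPLC following 18 hours at room temperature and centrifugation.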

food intake = assay: Assay (I) efficacy testing on appetite (food intake), ad libitum fed rat model; format: in vivo, Sprague Dawley (SD) rats; conditions: 3 nmol/kg
Procedure, shortened: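 Food consumption was logged per animal every hour up to 7 h and again at 24 h (occasionally 48 h) after a single 0.01–3 mg/kg dose, given sc, po or ip at dark-phase onset. Ad libitum fed SD rats, 200–250 g, kept on inverted light/dark cycle; vehicle group included, outliers removed by Grubbs test.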

[2] = Assay (IX) pK, determination of T½ in mini-pig; format: in vivo, Göttingen mini-pigs; conditions: male, Göttingen, iv, 2 nmol/kg; minipig; plasma terminal half-life
[3] = bistrispropane buffer, pH 6, pH 6.0, read-out: Solubility pH 6.0
[4] = bistrispropane buffer, pH 6.5, pH 6.5, read-out: Solubility pH 6.5
[5] = bistrispropane buffer, pH 7, pH 7.0, 18 hours at room temperature, Table 3, read-out: Solubility pH 7.0
[6] = bistrispropane buffer, pH 7, pH 7.0, read-out: Solubility pH 7.0
[7] = bistrispropane buffer, pH 7.5, pH 7.5, read-out: Solubility pH 7.5
[8] = bistrispropane buffer, pH 8, pH 8.0, read-out: Solubility pH 8.0
[9] = glycylglycine buffer, pH 3, pH 3.0, read-out: Solubility pH 3.0
[10] = glycylglycine buffer, pH 4, pH 4.0, 18 hours at room temperature, Table 2, read-out: Solubility pH 4.0
[11] = glycylglycine buffer, pH 4, pH 4.0, read-out: Solubility pH 4.0
[12] = glycylglycine buffer, pH 5, pH 5.0, read-out: Solubility pH 5.0

| SMILES | solubility at 18 h [1, 3] [µM] | solubility at 18 h [1, 4] [µM] | solubility at 18 h [1, 5] [µM] | solubility at 18 h ([1]; bistrispropane buffer, pH 7, pH 7.0, Table 8, read-out: Solubility pH 7.0) [µM] | solubility at 18 h ([1]; bistrispropane buffer, pH 7, pH 7.0, Table 9, read-out: Solubility pH 7.0) [µM] | solubility at 18 h [1, 6] [µM] | solubility at 18 h ([1]; bistrispropane buffer, pH 7.5, pH 7.5, Table 9, read-out: Solubility pH 7.5) [µM] | solubility at 18 h [1, 7] [µM] | solubility at 18 h [1, 8] [µM] | solubility at 18 h [1, 9] [µM] | solubility at 18 h [1, 10] [µM] | solubility at 18 h [1, 11] [µM] | solubility at 18 h [1, 12] [µM] | Food intake reduction 0-24 h 3 nmol/kg (%) (food intake) | Food intake reduction 24-48 h 3 nmol/kg (%) (food intake) | half-life [2] [h] |
| --- | --- | --- | --- | --- | --- | --- | --- | --- | --- | --- | --- | --- | --- | --- | --- | --- |
| CC[C@H](C)[C@H](NC(=O)[C@@H]1CCCN1C(=O)CNC(=O)[C@H](Cc1ccccc1)NC(=O)[C@H](CC(N)=O)NC(=O)[C@H](CC(N)=O)NC(=O)[C@H](CO)NC(=O)[C@H](CO)NC(=O)[C@H](Cc1c[nH]cn1)NC(=O)[C@H](Cc1c[nH]cn1)NC(=O)[C@H](CC(C)C)NC(=O)[C@H](Cc1ccccc1)NC(=O)[C@H](CCC(=O)O)NC(=O)[C@H](C)NC(=O)[C@H](CC(C)C)NC(=O)[C@H](CCCNC(=N)N)NC(=O)[C@H](CCC(N)=O)NC(=O)[C@@H](NC(=O)[C@H](C)NC(=O)[C@@H]1CSSC[C@H](NC(=O)[C@H](CCCNC(=N)N)NC(=O)CC[C@H](NC(=O)CCCCCCCCCCCCCCCCCCC(=O)O)C(=O)O)C(=O)N[C@@H](CC(N)=O)C(=O)N[C@@H]([C@@H](C)O)C(=O)N[C@@H](C)C(=O)N[C@@H]([C@@H](C)O)C(=O)N1)[C@@H](C)O)C(=O)N[C@@H](CC(C)C)C(=O)N1CCC[C@H]1C(=O)N1CCC[C@H]1C(=O)N[C@H](C(=O)N[C@@H](CC(N)=O)C(=O)N[C@H](C(=O)NCC(=O)N[C@@H](CO)C(=O)N[C@@H](CC(N)=O)C(=O)N[C@H](C(=O)N1CCC[C@H]1C(N)=O)[C@@H](C)O)C(C)C)[C@@H](C)O [Example 96, N-alpha-[(S)-4-Carboxy-4-(19-carboxynonadecanoylamino)butyryl]-[Arg1,Glu14,His17,Pro37]-pramlintide] ({C20 diacid-γGlu}-RCNTATCATQRLAEFLHHSSNNFGPILPPTNVGSNTP-NH2; disulfide 2-7 (inferred)) | > 200 | > 200 | > 200 | > 200 | > 200 | > 200 | > 200 | > 200 | > 200 | > 200 | > 200 | > 200 | > 200 | 69 | 89 | 107 |
| CC[C@H](C)[C@H](NC(=O)[C@@H]1CCCN1C(=O)CNC(=O)[C@H](Cc1ccccc1)NC(=O)[C@H](CC(N)=O)NC(=O)[C@H](CC(N)=O)NC(=O)[C@H](CO)NC(=O)[C@H](CO)NC(=O)[C@H](Cc1c[nH]cn1)NC(=O)[C@H](Cc1c[nH]cn1)NC(=O)[C@H](CC(C)C)NC(=O)[C@H](Cc1ccccc1)NC(=O)[C@H](CCC(=O)O)NC(=O)[C@H](C)NC(=O)[C@H](CC(C)C)NC(=O)[C@H](CCCNC(=N)N)NC(=O)[C@H](CCC(N)=O)NC(=O)[C@@H](NC(=O)[C@H](C)NC(=O)[C@@H]1CSSC[C@H](NC(=O)[C@H](CCCCN)NC(=O)[C@H](CCC(=O)O)NC(=O)CC[C@H](NC(=O)CCCCCCCCCCCCCCCCC(=O)O)C(=O)O)C(=O)N[C@@H](CC(N)=O)C(=O)N[C@@H]([C@@H](C)O)C(=O)N[C@@H](C)C(=O)N[C@@H]([C@@H](C)O)C(=O)N1)[C@@H](C)O)C(=O)N[C@@H](CC(C)C)C(=O)N1CCC[C@H]1C(=O)N1CCC[C@H]1C(=O)N[C@H](C(=O)N[C@@H](CC(N)=O)C(=O)N[C@H](C(=O)NCC(=O)N[C@@H](CO)C(=O)N[C@@H](CC(N)=O)C(=O)N[C@H](C(=O)N[C@@H](Cc1ccc(O)cc1)C(N)=O)[C@@H](C)O)C(C)C)[C@@H](C)O [Example 42, N-alpha-[(S)-4-Carboxy-4-(17-carboxyheptadecanoylamino)butyryl]-Glu-[Glu14,His17]-pramlintide] ({C18 diacid-γGlu}-EKCNTATCATQRLAEFLHHSSNNFGPILPPTNVGSNTY-NH2; disulfide 3-8 (inferred)) | > 200 | > 200 | > 200 |  |  | > 200 |  | > 200 | > 200 | > 200 | > 200 | > 200 | > 200 | 45 | 5 |  |
| CC[C@H](C)[C@H](NC(=O)[C@@H]1CCCN1C(=O)CNC(=O)[C@H](Cc1ccccc1)NC(=O)[C@H](CC(N)=O)NC(=O)[C@H](CC(N)=O)NC(=O)[C@H](CO)NC(=O)[C@H](CO)NC(=O)[C@H](Cc1c[nH]cn1)NC(=O)[C@H](Cc1c[nH]cn1)NC(=O)[C@H](CC(C)C)NC(=O)[C@H](Cc1ccccc1)NC(=O)[C@H](CCC(=O)O)NC(=O)[C@H](C)NC(=O)[C@H](CC(C)C)NC(=O)[C@H](CCCNC(=N)N)NC(=O)[C@H](CCC(N)=O)NC(=O)[C@@H](NC(=O)[C@H](C)NC(=O)[C@@H]1CSSC[C@H](NC(=O)[C@H](Cc2c[nH]cn2)NC(=O)CC[C@H](NC(=O)CCCCCCCCCCCCCCCCCCC(=O)O)C(=O)O)C(=O)N[C@@H](CC(N)=O)C(=O)N[C@@H]([C@@H](C)O)C(=O)N[C@@H](C)C(=O)N[C@@H]([C@@H](C)O)C(=O)N1)[C@@H](C)O)C(=O)N[C@@H](CC(C)C)C(=O)N1CCC[C@H]1C(=O)N1CCC[C@H]1C(=O)N[C@H](C(=O)N[C@@H](CC(N)=O)C(=O)N[C@H](C(=O)NCC(=O)N[C@@H](CO)C(=O)N[C@@H](CC(N)=O)C(=O)N[C@H](C(=O)N[C@@H](Cc1ccc(O)cc1)C(N)=O)[C@@H](C)O)C(C)C)[C@@H](C)O [Example 18, N-alpha-[(S)-4-Carboxy-4-(19-carboxynonadecanoylamino)butyryl]-[His1,Glu14,His17]-pramlintide] ({C20 diacid-γGlu}-HCNTATCATQRLAEFLHHSSNNFGPILPPTNVGSNTY-NH2; disulfide 2-7 (inferred); C-terminus assumed) | > 200 | 153 (≈ 683 µg/mL) | 191 (≈ 853 µg/mL) |  |  | 191 (≈ 853 µg/mL) |  | > 200 | > 200 | > 200 | > 200 | > 200 | > 200 | 40 | 32 |  |
| CC[C@H](C)[C@H](NC(=O)[C@@H]1CCCN1C(=O)CNC(=O)[C@H](Cc1ccccc1)NC(=O)[C@H](CC(N)=O)NC(=O)[C@H](CC(N)=O)NC(=O)[C@H](CO)NC(=O)[C@H](CO)NC(=O)[C@H](Cc1c[nH]cn1)NC(=O)[C@H](CCCNC(=N)N)NC(=O)[C@H](CC(C)C)NC(=O)[C@H](Cc1ccccc1)NC(=O)[C@H](CCC(=O)O)NC(=O)[C@H](C)NC(=O)[C@H](CC(C)C)NC(=O)[C@H](CCCNC(=N)N)NC(=O)[C@H](CCC(N)=O)NC(=O)[C@@H](NC(=O)[C@H](C)NC(=O)[C@@H]1CSSC[C@H](NC(=O)[C@H](CCCCN)NC(=O)[C@H](Cc2c[nH]cn2)NC(=O)CC[C@H](NC(=O)CCCCCCCCCCCCCCCCC(=O)O)C(=O)O)C(=O)N[C@@H](CC(N)=O)C(=O)N[C@@H]([C@@H](C)O)C(=O)N[C@@H](C)C(=O)N[C@@H]([C@@H](C)O)C(=O)N1)[C@@H](C)O)C(=O)N[C@@H](CC(C)C)C(=O)N1CCC[C@H]1C(=O)N1CCC[C@H]1C(=O)N[C@H](C(=O)N[C@@H](CC(N)=O)C(=O)N[C@H](C(=O)NCC(=O)N[C@@H](CO)C(=O)N[C@@H](Cc1c[nH]cn1)C(=O)N[C@H](C(=O)N[C@@H](Cc1ccc(O)cc1)C(N)=O)[C@@H](C)O)C(C)C)[C@@H](C)O [Example 71, N-alpha-[(S)-4-Carboxy-4-(17-carboxyheptadecanoylamino)butyryl]-His-[Glu14,Arg17,His35]-pramlintide] ({C18 diacid-γGlu}-HKCNTATCATQRLAEFLRHSSNNFGPILPPTNVGSHTY-NH2; disulfide 3-8 (inferred); C-terminus assumed) | > 200 | 156 (≈ 719 µg/mL) |  |  |  | 37 (≈ 170 µg/mL) |  | 27 (≈ 124 µg/mL) | 26 (≈ 120 µg/mL) | > 200 | > 200 | > 200 | > 200 | 10 | 0 |  |
